Assay results from patent publication US10427133B2, “Absorbent article comprising cyclodextrin complexes” (The Procter & Gamble Company, priority 2016, dated 2019).

Experiment: Fragrance (OCOC) release from cyclodextrin complexes on feminine hygiene pad, SPME-GC/MS headspace
Type: physicochemical
Settings: 1.00 mL water, headspace at 5, 10, 30 min, FIG. 2
From the text: The results are shown in the graph of FIG. 2. After dosing with water the headspace was sampled using Solid Phase Micro-Extraction (a suitable fiber assembly is a 2 cm Stableflex 24 Ga, 50/30 μm DVB/CAR/PDMS available from Supelco, Pa. or equivalent) followed by gas chromatography/mass spectrometry (a suitable unit is the 5777A Mass Selective Detector (MSD) also available from Agilent, or equivalent) with a GERSTEL Multipurpose Sampler (Gerstel, Liticumo, Md. or equivalent) to quantify the OCOC release.
The model OCOC used is a neat mixture of benzaldehyde (1.6 g, 15.08 mmols), ligustral (1.6 g, 11.58 mmols), citral (1.6 g, 10.51 mmols), cinnamic aldehyde (1.6 g, 12.11 mmols), and florhydral (1.6 g, 8.41 mmols). All components are available from Sigma Aldrich, or equivalent. The mixture is homogenized before use.
The Standard Pad Substrates are prepared by cutting a 10 cm lateral strip across the whole product centered at the longitudinal center of an Always Ultra normal size pad.
A mixture of the model OCOC for each β-cyclodextrin type was solubilized in water at a one-to-one molar ratio (β-cyclodextrin/OCOC). The amount of water used for the complexation was adjusted for each β-cyclodextrin type according to its individual water solubility to ensure complete dissolution of the β-cyclodextrin complex. Each mixture of β-cyclodextrin and OCOC in water was thoroughly homogenized. […]

**Q.** For `COC[C@H]1O[C@@H]2O[C@H]3[C@H](O)[C@@H](OC)[C@@H](O[C@H]4[C@H](O)[C@@H](OC)[C@@H](O[C@H]5[C@H](O)[C@@H](OC)[C@@H](O[C@H]6[C@H](O)[C@@H](OC)[C@@H](O[C@H]7[C@H](O)[C@@H](OC)[C@@H](O[C@H]8[C@H](O)[C@@H](OC)[C@@H](O[C@H]1[C@H](O)[C@H]2OC)O[C@@H]8COC)O[C@@H]7COC)O[C@@H]6COC)O[C@@H]5COC)O[C@@H]4COC)O[C@@H]3COC` [2,6-dimethyl-β-cyclodextrin, 2,6-Di-O-methyl-β-cyclodextrin], which “Percent release of fragrance versus conventional β-cyclodextrin complex” value is on record?
**A.** much higher percent release of fragrance than does conventional β-cyclodextrin

**Q.** And the “Release of fragrance versus 2,3,6-trimethyl-β-cyclodextrin complex” value?
**A.** much higher release of fragrance than does 2, 3, 6-trimethyl-β-cyclodextrin

Experiment: Thiol Vapor Pressure Suppression (TVPS) index measurement, zNose fast GC headspace
Settings: 5 μl compound, 100 μl 1% v/v butanethiol in ethanol, 37° C. for 4 hours
From the text: (§1) Thiol Vapor Pressure Suppression (TVPS) index is a measure of the reduction in butanethiol concentration in the headspace by a compound, as measured using a fast GC instrument, the zNose 7100 (Electronic Sensor Technologies, Newbury Park, Calif.).
as §1, with “Calif.) based on an Surface Acoustic Wave (SAW) Quartz microbalance detector, or equivalent.” for “Calif.).”
Before any measurements the instrument is calibrated according to manufacturer's instructions under the same experimental settings. The instrument has a DB-5 column (also available from Electronic Sensor Technologies, Newbury Park, Calif.) 1 m in length, 0.25 μm phase thickness, and 0.25 mm in diameter.
For analysis, the zNose is programmed with the Sensor Temperature, Inlet Temperature, Valve Temperature, and Initial Column Temperature all set to 40° C. The oven is temperature gradient is programmed at a rate of 10° C./s from 40° C. to a final temperature of 200° C.
TVPS of a compound is measured in the following way: 100 μl±1 μl of a 1% v/v butanethiol (99%, purity, available from Sigma-Aldrich, St. Louis, Mo.) solution in ethanol (200 proof) is added into a 1 ml vial (8×40 mm). These vials are borosilcate glass straight walled vial. In another 1 ml vial (8×40 mm), 5 μl±0.2 μl of the compound is added. Both open vials are then placed inside a 20 mL headspace vial (22×75 mm), and the vial is immediately sealed using a screw thread closure with PTFE/Silicone septa. The vial is heated to 37° C. for 4 hours. After 4 hours, the vial is removed from the oven and let to equilibrate at 25° C.±2° C. for 15 minutes. The headspace inside the vial is sampled using the zNose is sampled for 10 s and analyzed following the experimental protocol outlined above. Samples with butanethiol alone, and the volatile active alone, are run using the same protocol to identify the peaks for both materials. An acceptable retention index for butanethiol is 720±30. If the peaks butanethiol peak and the volatile material peak co-elute, one skilled in the art can modify the protocol settings to separate those peaks to achieve a minimum resolution of 1.5. For example one can change the column temperature ramp rate. In between samples, the instrument needs to be cleaned to remove any trace materials. To clean the instrument, the instrument is run without samples as needed until no peaks greater than 100 counts are observed.
The amount of butanethiol in the headspace is measured from the area of the peak on the chromatograph for butanethiol (ABtSH,Rx). To calculate the percentage of butanethiol reduction in the headspace, a control with the butanethiol solution without the volatile material is run in the same manner and the area is measured as well (ABtSH,C). TVPS is then measured as the percentage reduction in butanethiol area calculated using the following formula: […]

**Q.** With `CCC/C=C/C=O` [trans-2-hexenal] as the molecule, how does the “TVPS (percentage reduction in butanethiol headspace peak area)” value read?
**A.** 27.1

**Q.** For `CC(C)c1cccc(C(C)CC=O)c1` (centres unmarked) [Florhydral], which “TVPS (percentage reduction in butanethiol headspace peak area)” value is on record?
**A.** 53.3

**Q.** For `CC1=CC(C)C(C=O)CC1` (centres unmarked) [ligustral], which “TVPS (percentage reduction in butanethiol headspace peak area)” value is on record?
**A.** 42.5

**Q.** Which “TVPS (percentage reduction in butanethiol headspace peak area)” value does the source give for `CCCCCCC(C=O)=Cc1ccccc1` [Hexylcinnamic aldehyde] here?
**A.** 8.0

**Q.** With `Cc1ccc(C=O)s1` [5-methyl-2-thiophene-carboxaldehyde] as the molecule, how does the “TVPS (percentage reduction in butanethiol headspace peak area)” value read?
**A.** 67.4

**Q.** With `CC(C)=CCC/C(C)=C\C=O` [neral] as the molecule, how does the “TVPS (percentage reduction in butanethiol headspace peak area)” value read?
**A.** 17.1

**Q.** For `CC(C)=CCCC(C)C=O` (centres unmarked) [melonal], which “TVPS (percentage reduction in butanethiol headspace peak area)” value is on record?
**A.** 20.4

**Q.** For `C=CC(C)CCC=C(C)CCC=O` (centres unmarked) [Floral Super], which “TVPS (percentage reduction in butanethiol headspace peak area)” value is on record?
**A.** 52.4

**Q.** With `CC(C)=CCCC(C)CCCC(C)C=O` (centres unmarked) [adoxal] as the molecule, how does the “TVPS (percentage reduction in butanethiol headspace peak area)” value read?
**A.** 24.4
